Data set [1] has as its system S. epidermidis (MDR00223). Nature of the data set: MIC and MBC by broth microdilution. In kind it is cell-based, Staphylococcus epidermidis. To be noted: Staphylococcus epidermidis, read-out: MIC (mean ± SEM), S. epidermidis; broth microdilution.
A further data set relates to S. epidermidis biofilm. As to the kind of experiment: Staphylococcus biofilm mass reduction. The format is cell-based. To be noted: at their MIC.
The subject of another data set is S. aureus biofilm. Nature of the data set: Staphylococcus biofilm mass reduction. The format is cell-based. To be noted: at their MIC.
Data set [2] deals with S. aureus (MDR00231). Nature of the data set: MIC and MBC by broth microdilution. The format is cell-based, Staphylococcus aureus. To be noted: Staphylococcus aureus, read-out: MIC (mean ± SEM), S. aureus; broth microdilution. For orientation: Dilution methods test growth across graded concentrations, often in twofold steps.
Data set [3] relates to E. coli (MDR00501). Nature of the data set: MIC and MBC by broth microdilution. In kind it is cell-based. To be noted: Escherichia coli, read-out: MIC (mean ± SEM), E. coli; broth microdilution.
The next data set concerns RBCs. Nature of the data set: Hemolytic assay. The format is cell-based. To be noted: human RBCs; compounds 1.0 mg/mL; Triton X-100 0.1% v/v; 37 °C, 35 min.
The test system of a further data set is B. subtilis (MDR00423). Nature of the data set: MIC and MBC by broth microdilution. In kind it is cell-based. To be noted: Bacillus subtilis, read-out: MIC (mean ± SEM), B. subtilis; broth microdilution.
Data set [4] concerns S. aureus (MDR00231). As to the kind of experiment: Agar well-diffusion antimicrobial sensitivity assay. To be noted: Staphylococcus aureus, read-out: Inhibition Zone (IZ). The format is cell-based, Staphylococcus aureus. For orientation: In agar diffusion tests the substance spreads into inoculated agar from a disc or well.
Data set [5] has as its system C. albicans200 (MDR00200). Described as above. The format is cell-based, Candida albicans. To be noted: Candida albicans, read-out: Inhibition Zone (IZ).
Data set [6] has as its system C. albicans100 (MDR00100). Described as above. In kind it is cell-based, Candida albicans. To be noted: Candida albicans, read-out: Inhibition Zone (IZ).
For data set [7], the system named is E. coli (MDR00501). Described as above. In kind it is cell-based. To be noted: Escherichia coli, read-out: Inhibition Zone (IZ).
For data set [8], the system named is S. epidermidis (MDR00223). The description is as above. In kind it is cell-based, Staphylococcus epidermidis. To be noted: Staphylococcus epidermidis, read-out: Inhibition Zone (IZ).

This note sets out measurements from article PMC8851638 (ACS Omega, 2022).

In brackets after ≈: the same amount, converted by molar mass. Several values for one entry are separate records, joined by “and”; a condition that tells them apart may be missing. Equal entries are not always repeated.

What is called MIC is the lowest concentration that inhibits growth of the organism.

Turning to `O=C(O)c1cn(C2CC2)c2cc(N3CCNCC3)c(F)cc2c1=O` [CIP, Ciprofloxacin, reference compound], the minimal inhibitory concentration (MIC) in data set [1] came out at 0.47 ± 0.2 mg/L (≈ 1.42 µM); in the data set with S. aureus (MDR00231) [2], 0.48 ± 0.1 mg/L (≈ 1.45 µM); with E. coli (MDR00501) [3], 0.46 ± 0.4 mg/L (≈ 1.39 µM); with B. subtilis (MDR00423) it was 0.48 ± 0.3 mg/L (≈ 1.45 µM). Besides, the “reduction of biofilm formation” value with S. epidermidis biofilm was 38%; with S. aureus biofilm, 43.2%. Moreover, in the data set on RBCs, the “%lysis of RBCs” value is 16.2% and 16.2 ± 0.5%.
For the compound `Cc1ccc(-c2nn(-c3ccccc3)cc2C=c2sc(=CC#N)[nH]c2=O)cc1` [Compound 3b, 2-(4-Oxo-5-((1-phenyl-3-(p-tolyl)-1H-pyrazol-4-yl)methylene)thiazolidin-2-ylidene)acetonitrile], the zone of inhibition at 100000 µg/mL turned out to be 15 ± 0.63 mm in the data set on S. aureus (MDR00231) [4]; 15 ± 0.8 mm in [5]; 13 ± 0.22 mm in data set [6]; 16 ± 0.34 mm in the data set on E. coli (MDR00501) [7]; 17 ± 0.21 mm in data set [8].
With `CCOC(=O)C=c1[nH]c(=O)c(=Cc2cn(-c3ccccc3)nc2-c2ccccc2)s1` [Compound 3c, Ethyl 2-(5-((1,3-Diphenyl-1H-pyrazol-4-yl)methylene)-4-oxothiazolidin-2-ylidene)acetate], the zone of inhibition at 100000 µg/mL in the data set on S. aureus (MDR00231) [4] came to 13 ± 0.46 mm; in data set [5] it was 14 ± 0.3 mm; in [6], 15 ± 0.45 mm; with E. coli (MDR00501) [7], 18 ± 0.33 mm; in [8], 15 ± 0.7 mm.
On to `CCOC(=O)C=c1[nH]c(=O)c(=Cc2cn(-c3ccccc3)nc2-c2ccc(C)cc2)s1` [Compound 3d, Ethyl-2-(4-oxo-5-((1-phenyl-3-(p-tolyl)-1H-pyrazol-4-yl)methylene)thiazolidin-2-ylidene)-acetate], for which the zone of inhibition at 100000 µg/mL with S. aureus (MDR00231) [4] was found to be 15 ± 0.78 mm; in data set [5] it was 16 ± 0.22 mm; in data set [6], 13 ± 0.6 mm; in the data set with E. coli (MDR00501) [7], 15 ± 0.67 mm; in [8] it was 16 ± 0.1 mm.
Taken in the same sequence, the figures for `Cc1ccc(-c2nn(-c3ccccc3)cc2C=C(C#N)C2=NC(=O)CS2)cc1` [Compound 4b, 2-(4-Oxo-4,5-dihydrothiazol-2-yl)-3-(1-phenyl-3-(p-tolyl)-1H-pyrazol-4-yl)acrylonitrile] were 20 ± 0.2 mm, 23 ± 0.22 mm, 22 ± 0.1 mm, 22 ± 0.6 mm and 19 ± 0.31 mm.
As to `N#CC(=Cc1ccc(Cl)cc1)C1=NC(=O)C(=Cc2cn(-c3ccccc3)nc2-c2ccccc2)S1` [Compound 5b, 3-(4-Chlorophenyl)-2-(5-((1,3-diphenyl-1H-pyrazol-4-yl)methylene)-4-oxo-4,5-dihydrothiazol-2-yl)acrylonitrile], the zone of inhibition at 100000 µg/mL in the data set with S. aureus (MDR00231) [4] came to 24 ± 0.2 mm; in data set [5], 25 ± 0.77 mm; in data set [6], 23 ± 0.26 mm; in the data set with E. coli (MDR00501) [7] it was 22 ± 0.56 mm; in data set [8] it was 21 ± 0.1 mm.
For `N#CC(=Cc1ccc([N+](=O)[O-])cc1)C1=NC(=O)C(=Cc2cn(-c3ccccc3)nc2-c2ccccc2)S1` [Compound 5c, 2-(5-((1,3-Diphenyl-1H-pyrazol-4-yl)methylene)-4-oxo-4,5-dihydrothiazol-2-yl)-3-(4-nitrophenyl)acrylonitrile], in that order: 22 ± 0.66 mm, 24 ± 0.13 mm, 21 ± 0.52 mm, 21 ± 0.45 mm and 24 ± 0.28 mm.
For `CCOC(=O)c1c(N)csc1-c1cn(-c2ccccc2)nc1-c1ccccc1` [Compound 7a, Ethyl 4-Amino-2-(1,3-diphenyl-1H-pyrazol-4-yl)thiophene-3-carboxylate], in that order: 24 ± 0.4 mm, 25 ± 0.33 mm, 21 ± 0.32 mm, 22 ± 0.41 mm and 21 ± 0.12 mm.
Taken in the same sequence, the figures for `Cc1c(NN=C2SC(CC#N)=NC2=O)c(=O)n(-c2ccccc2)n1C` [Compound 14, 2-(5-(2-(1,5-Dimethyl-3-oxo-2-phenyl-2,3-dihydro-1H-pyrazol-4-yl)hydrazono)-4-oxo-4,5-dihydrothiazol-2-yl)acetonitrile] were 16 ± 0.21 mm, 20 ± 0.88 mm, 18 ± 0.66 mm, 17 ± 0.35 mm and 19 ± 0.23 mm.
As for `Cc1c(NN=C2SC(C(C#N)=Cc3ccccc3)=NC2=O)c(=O)n(-c2ccccc2)n1C` [Compound 15a, 2-(5-(2-(1,5-Dimethyl-3-oxo-2-phenyl-2,3-dihydro-1H-pyrazol-4-yl)hydrazono)-4-oxo-4,5-dihydrothiazol-2-yl)-3-phenylacrylonitrile], the zone of inhibition at 100000 µg/mL amounted to 16 ± 0.59 mm with S. aureus (MDR00231) [4]; 20 ± 0.58 mm in [5]; 16 ± 0.44 mm in [6]; 15 ± 0.77 mm in the data set with E. coli (MDR00501) [7]; 18 ± 0.56 mm in data set [8].
Taken in the same sequence, the figures for `Cc1c(NN=C2SC(C(C#N)=Cc3ccc(Cl)cc3)=NC2=O)c(=O)n(-c2ccccc2)n1C` [Compound 15b, 3-(4-Chlorophenyl)-2-(5-(2-(1,5-dimethyl-3-oxo-2-phenyl-2,3-dihydro-1H-pyrazol-4-yl)hydrazono)-4-oxo-4,5-dihydrothiazol-2-yl)acrylonitrile] were 18 ± 0.44 mm, 18 ± 0.76 mm, 16 ± 0.34 mm, 16 ± 0.85 mm and 16 ± 0.25 mm.
For the compound Triton X-100 [reference compound], in the data set on RBCs, the “%lysis of RBCs” value is 95.12% and 95.12 ± 0.721%.
